Measurements reported in ChEMBL document CHEMBL5696439 (Cancer Res, 2010).
Activity calls are given as the source filed them. No cut-off for these calls is given here.

Key:
[1] = Inhibition of recombinant human full-length His-tagged CDK2/cyclin A expressed in insect cells at 2 uM using Ser/Thr 12 as substrate measured after 1 hr by Z'-LYTE assay relative to control; conditions: Insect cell, condition cancer
[2] = biological target: Tyrosine-protein kinase CSK (Homo sapiens) (UniProt P41240); experiment: Inhibition of recombinant human full-length His-tagged CSK expressed in E. coli at 2 uM using Tyr 02 as substrate measured after 1 hr by Z'-LYTE assay relative to control
[3] = system: Receptor-type tyrosine-protein kinase FLT3 (Homo sapiens), P36888 [D835Y]; experiment: Inhibition of recombinant human His-tagged FLT3 D835Y mutant (564-958 residues) expressed in insect cells at 2 uM using Tyr 02 as substrate measured after 1 hr by Z'-LYTE assay relative to control; conditions: Insect cell
[4] = biological target: Insulin receptor-related protein (Homo sapiens) (UniProt P14616); experiment: Inhibition of recombinant human GST-tagged INSRR (944-1297 residues) expressed in insect cells at 2 uM using Tyr 04 as substrate measured after 1 hr by Z'-LYTE assay relative to control; conditions: Insect cell
Chain of Insulin receptor-related protein (Homo sapiens) (P14616 27-742 limits assumed): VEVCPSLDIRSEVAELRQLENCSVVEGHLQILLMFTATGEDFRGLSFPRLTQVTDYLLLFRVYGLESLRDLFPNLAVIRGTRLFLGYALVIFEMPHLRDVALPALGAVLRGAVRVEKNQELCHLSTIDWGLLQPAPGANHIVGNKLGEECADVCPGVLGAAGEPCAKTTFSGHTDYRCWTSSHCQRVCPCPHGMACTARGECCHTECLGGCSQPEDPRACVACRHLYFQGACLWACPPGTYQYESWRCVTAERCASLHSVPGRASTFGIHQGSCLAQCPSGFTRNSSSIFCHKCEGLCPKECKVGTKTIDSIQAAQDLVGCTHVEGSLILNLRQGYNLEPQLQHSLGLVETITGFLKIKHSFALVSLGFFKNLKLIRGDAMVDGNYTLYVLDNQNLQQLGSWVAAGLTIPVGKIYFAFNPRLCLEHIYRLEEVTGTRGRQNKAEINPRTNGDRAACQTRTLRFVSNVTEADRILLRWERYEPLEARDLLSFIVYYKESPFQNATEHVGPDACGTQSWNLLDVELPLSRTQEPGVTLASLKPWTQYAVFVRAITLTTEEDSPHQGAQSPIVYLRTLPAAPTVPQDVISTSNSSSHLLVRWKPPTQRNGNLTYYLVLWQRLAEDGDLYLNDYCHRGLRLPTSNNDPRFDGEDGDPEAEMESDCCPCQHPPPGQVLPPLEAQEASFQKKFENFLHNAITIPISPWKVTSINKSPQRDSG
Chain of Insulin receptor-related protein (Homo sapiens) (P14616 747-1297 limits assumed): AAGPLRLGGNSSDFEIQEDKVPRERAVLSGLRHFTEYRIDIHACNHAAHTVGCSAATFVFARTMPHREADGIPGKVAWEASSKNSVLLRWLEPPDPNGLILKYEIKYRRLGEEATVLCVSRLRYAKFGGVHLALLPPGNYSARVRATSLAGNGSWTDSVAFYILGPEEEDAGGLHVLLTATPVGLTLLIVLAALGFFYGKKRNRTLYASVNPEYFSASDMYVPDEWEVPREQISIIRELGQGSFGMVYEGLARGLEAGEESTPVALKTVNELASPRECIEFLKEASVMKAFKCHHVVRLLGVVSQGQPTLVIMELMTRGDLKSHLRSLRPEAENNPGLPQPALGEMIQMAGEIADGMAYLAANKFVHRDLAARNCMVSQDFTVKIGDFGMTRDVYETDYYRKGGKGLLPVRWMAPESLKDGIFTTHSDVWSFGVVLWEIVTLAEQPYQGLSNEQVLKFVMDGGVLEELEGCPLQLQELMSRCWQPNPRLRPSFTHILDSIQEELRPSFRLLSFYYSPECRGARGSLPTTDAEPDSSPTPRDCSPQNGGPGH

[5] = biological target: Tyrosine-protein kinase Lyn (Homo sapiens) (UniProt P07948); experiment: Inhibition of recombinant human full length GST-tagged LYN A expressed in baculovirus expression system at 2 uM using Tyr 02 as substrate measured after 1 hr by Z'-LYTE assay relative to control
[6] = biological target: Macrophage-stimulating protein receptor (Homo sapiens) (UniProt Q04912); experiment: Inhibition of recombinant human GST-tagged MST1R (983-1400 residues) expressed in insect cells at 2 uM using Tyr 06 as substrate measured after 1 hr by Z'-LYTE assay relative to control; conditions: Insect cell
[7] = biological target: Muscle, skeletal receptor tyrosine-protein kinase (Homo sapiens) (UniProt O15146); experiment: Inhibition of recombinant human GST-tagged MUSK (519-869 residues) expressed in insect cells at 2 uM using Tyr 04 as substrate measured after 1 hr by Z'-LYTE assay relative to control; conditions: Insect cell
[8] = biological target: Serine/threonine-protein kinase PAK 5 (Homo sapiens) (UniProt Q9P286); experiment: Inhibition of recombinant human His-tagged PAK7 (425-719 residues) expressed in baculovirus expression system at 2 uM using Ser/Thr 20 as substrate measured after 1 hr by Z'-LYTE assay relative to control
Chain of Serine/threonine-protein kinase PAK 5 (Homo sapiens) (Q9P286 whole entry, looked up, the tested form may be a part): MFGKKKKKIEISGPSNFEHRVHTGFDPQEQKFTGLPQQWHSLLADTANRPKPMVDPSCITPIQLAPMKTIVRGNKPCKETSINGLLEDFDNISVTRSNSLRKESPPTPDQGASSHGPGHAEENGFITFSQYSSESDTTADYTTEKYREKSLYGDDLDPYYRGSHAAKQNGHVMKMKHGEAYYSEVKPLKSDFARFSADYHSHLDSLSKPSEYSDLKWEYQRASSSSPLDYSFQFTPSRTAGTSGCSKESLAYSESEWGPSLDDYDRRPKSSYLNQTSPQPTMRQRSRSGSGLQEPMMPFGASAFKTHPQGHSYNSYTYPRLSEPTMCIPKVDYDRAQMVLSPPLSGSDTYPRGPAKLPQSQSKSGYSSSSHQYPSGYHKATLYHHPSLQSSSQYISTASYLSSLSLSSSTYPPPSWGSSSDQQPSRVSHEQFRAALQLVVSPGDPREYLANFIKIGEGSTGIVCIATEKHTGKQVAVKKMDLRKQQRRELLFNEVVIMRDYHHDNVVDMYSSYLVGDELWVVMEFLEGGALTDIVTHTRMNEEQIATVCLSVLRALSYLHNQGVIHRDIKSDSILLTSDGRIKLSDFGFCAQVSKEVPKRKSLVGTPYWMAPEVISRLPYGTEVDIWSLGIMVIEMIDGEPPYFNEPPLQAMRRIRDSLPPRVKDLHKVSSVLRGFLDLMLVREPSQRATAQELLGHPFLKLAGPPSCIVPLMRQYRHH

[9] = biological target: Platelet-derived growth factor receptor alpha (Homo sapiens) (UniProt P16234); experiment: Inhibition of recombinant human GST-tagged PDGFRA (550-1089 residues) expressed in baculovirus expression system at 2 uM using Tyr 04 as substrate measured after 1 hr by Z'-LYTE assay relative to control
[10] = biological target: Serine/threonine-protein kinase D3 (Homo sapiens) (UniProt O94806); experiment: Inhibition of recombinant human full length GST-tagged PRKCN expressed in insect cells at 2 uM using Ser/Thr 17 as substrate measured after 1 hr by Z'-LYTE assay relative to control; conditions: Insect cell
[11] = biological target: Protein kinase C zeta type (Homo sapiens) (UniProt Q05513); experiment: Inhibition of recombinant human PRKCZ at 2 uM using Ser/Thr 07 as substrate measured after 1 hr by Z'-LYTE assay relative to control
[12] = biological target: Serine/threonine-protein kinase D1 (Homo sapiens) (UniProt Q15139); experiment: Inhibition of recombinant human full length GST-tagged PRKD1 expressed in insect cells at 2 uM using Ser/Thr 17 as substrate measured after 1 hr by Z'-LYTE assay relative to control; conditions: Insect cell
Chain of Serine/threonine-protein kinase D1 (Homo sapiens) (Q15139 whole entry, the tested form may be a part): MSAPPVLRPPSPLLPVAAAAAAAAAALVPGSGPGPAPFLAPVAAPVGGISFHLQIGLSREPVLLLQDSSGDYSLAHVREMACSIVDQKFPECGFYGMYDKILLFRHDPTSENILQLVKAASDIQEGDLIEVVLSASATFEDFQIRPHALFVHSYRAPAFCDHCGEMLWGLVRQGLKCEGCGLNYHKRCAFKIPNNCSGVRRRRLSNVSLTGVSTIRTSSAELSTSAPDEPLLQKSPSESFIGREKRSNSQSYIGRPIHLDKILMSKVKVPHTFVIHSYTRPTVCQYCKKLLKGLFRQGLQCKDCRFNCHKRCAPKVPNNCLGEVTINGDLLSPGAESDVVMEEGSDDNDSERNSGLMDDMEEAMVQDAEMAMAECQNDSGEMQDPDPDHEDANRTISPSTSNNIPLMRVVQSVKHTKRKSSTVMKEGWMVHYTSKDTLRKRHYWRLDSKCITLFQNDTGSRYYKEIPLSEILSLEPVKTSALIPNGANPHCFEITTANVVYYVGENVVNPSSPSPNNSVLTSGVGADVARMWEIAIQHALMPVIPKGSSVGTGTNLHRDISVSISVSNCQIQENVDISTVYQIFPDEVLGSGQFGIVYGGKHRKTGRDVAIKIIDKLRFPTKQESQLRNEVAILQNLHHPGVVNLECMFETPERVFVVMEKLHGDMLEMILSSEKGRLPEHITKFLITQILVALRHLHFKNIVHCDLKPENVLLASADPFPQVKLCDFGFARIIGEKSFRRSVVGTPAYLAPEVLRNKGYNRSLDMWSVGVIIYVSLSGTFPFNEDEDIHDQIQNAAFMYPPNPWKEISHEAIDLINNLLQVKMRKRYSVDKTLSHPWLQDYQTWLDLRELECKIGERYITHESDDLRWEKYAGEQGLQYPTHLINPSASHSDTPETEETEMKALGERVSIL

[13] = system: RAF proto-oncogene serine/threonine-protein kinase (Homo sapiens), P04049 [Y340D,Y341D]; experiment: Inhibition of recombinant human GST-tagged RAF1 Y340D/Y341D double mutant (306-648 residues) expressed in insect cells at 2 uM using Ser/Thr 03 as substrate measured after 1 hr by Z'-LYTE assay relative to control; conditions: Insect cell
[14] = biological target: Ribosomal protein S6 kinase alpha-6 (Homo sapiens) (UniProt Q9UK32); experiment: Inhibition of recombinant human full length GST-tagged RPS6KA6 expressed in insect cells at 2 uM using Ser/Thr 20 as substrate measured after 1 hr by Z'-LYTE assay relative to control; conditions: Insect cell
[15] = biological target: Proto-oncogene tyrosine-protein kinase Src (Homo sapiens) (UniProt P12931); experiment: Inhibition of recombinant human full length SRC N1 expressed in baculovirus expression system at 2 uM using Tyr 02 as substrate measured after 1 hr by Z'-LYTE assay relative to control
[16] = biological target: Serine/threonine-protein kinase TAO2 (Homo sapiens) (UniProt Q9UL54); experiment: Inhibition of recombinant human GST-tagged TAOK2 (1-314 residues) expressed in insect cells at 2 uM using Ser/Thr 07 as substrate measured after 1 hr by Z'-LYTE assay relative to control; conditions: Insect cell
Chain of Serine/threonine-protein kinase TAO2 (Homo sapiens) (Q9UL54 whole entry, the tested form may be a part): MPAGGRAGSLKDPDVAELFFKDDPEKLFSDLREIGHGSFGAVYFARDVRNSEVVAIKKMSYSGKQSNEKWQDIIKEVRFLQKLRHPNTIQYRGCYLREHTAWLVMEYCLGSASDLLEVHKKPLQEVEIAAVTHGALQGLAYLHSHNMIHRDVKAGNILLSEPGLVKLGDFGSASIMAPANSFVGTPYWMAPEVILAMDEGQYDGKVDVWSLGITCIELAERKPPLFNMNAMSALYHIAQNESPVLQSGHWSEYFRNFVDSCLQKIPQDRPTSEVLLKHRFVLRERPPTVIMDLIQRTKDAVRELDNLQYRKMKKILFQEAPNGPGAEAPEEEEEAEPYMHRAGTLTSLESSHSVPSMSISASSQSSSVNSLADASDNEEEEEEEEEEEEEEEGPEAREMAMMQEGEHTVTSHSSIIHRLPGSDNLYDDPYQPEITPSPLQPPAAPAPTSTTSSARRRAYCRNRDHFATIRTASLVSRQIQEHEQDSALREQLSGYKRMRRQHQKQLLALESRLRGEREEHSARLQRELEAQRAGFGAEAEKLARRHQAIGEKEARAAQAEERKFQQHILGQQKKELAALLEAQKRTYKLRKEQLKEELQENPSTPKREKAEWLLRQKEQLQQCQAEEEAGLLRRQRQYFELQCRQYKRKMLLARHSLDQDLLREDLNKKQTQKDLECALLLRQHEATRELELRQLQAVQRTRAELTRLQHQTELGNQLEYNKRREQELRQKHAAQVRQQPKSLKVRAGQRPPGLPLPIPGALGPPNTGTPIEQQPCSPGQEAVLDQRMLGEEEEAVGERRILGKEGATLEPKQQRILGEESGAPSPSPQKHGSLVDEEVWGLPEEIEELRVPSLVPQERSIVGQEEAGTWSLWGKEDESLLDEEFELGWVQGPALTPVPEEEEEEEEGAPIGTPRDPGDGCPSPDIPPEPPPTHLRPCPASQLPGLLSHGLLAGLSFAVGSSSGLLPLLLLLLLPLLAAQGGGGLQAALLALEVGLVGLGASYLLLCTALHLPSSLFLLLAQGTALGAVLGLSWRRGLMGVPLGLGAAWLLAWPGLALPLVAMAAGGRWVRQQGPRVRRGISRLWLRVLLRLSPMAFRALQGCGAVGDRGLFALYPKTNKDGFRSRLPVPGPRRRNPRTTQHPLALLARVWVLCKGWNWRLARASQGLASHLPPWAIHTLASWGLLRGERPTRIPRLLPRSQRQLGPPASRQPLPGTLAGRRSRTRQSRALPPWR

A549 [17] = experiment: Antiproliferative activity against human A549 cells assessed as cell growth inhibition incubated for 24 hrs by MTS assay; type: functional, cell-based; conditions: A549, 24 h
NCI-H460 = experiment: Antiproliferative activity against human NCI-H460 cells assessed as cell growth inhibition incubated for 24 hrs by MTS assay; type: functional, cell-based; conditions: NCI-H460, 24 h
HCT-116 = experiment: Antiproliferative activity against human HCT-116 cells assessed as cell growth inhibition incubated for 24 hrs by MTS assay; type: functional, cell-based; conditions: HCT-116, 24 h
MDA-MB-468 = experiment: Induction of apoptosis in human MDA-MB-468 cells assessed as increase in G1 phase at 1 micromol/L incubated for 24 hrs by FACS analysis; type: functional, cell-based; conditions: dose 1.0 µmol/L
U-87 MG [18] = experiment: Antitumor activity against human U-87MG cells assessed as reduction in lactate production at 1 micromol/L incubated for 24 hrs relative to control; type: functional, U-87MG ATCC; set-up: scale not given: the % may be the effect or the level left; conditions: dose 1 µmol/L, at 1 µM
U-87 MG [19] = experiment: Antitumor activity against human U-87MG cells assessed as reduction in HIF-1alpha level at 0.025 to 2 micromol/L incubated for 6 hrs by immunoblot analysis; type: functional, cell-based; conditions: U-87MG ATCC, dose 0.025-2 µmol/L
MDA-MB-361 [20] = experiment: Antitumor activity against human MDA-MB-361 cells xenografted in female nude mouse model assessed as suppression in P-AKT at S473 level at 50 mg/kg, po qd administered as 5 days on/2 days off regimen for 4 cycles by immunoblot analysis; type: functional, organism-based; conditions: time 28.0 day
MDA-MB-361 [21] = experiment: Antitumor activity against human MDA-MB-361 cells xenografted in female nude mouse model assessed as suppression in P-S6K at T389 level at 50 mg/kg, po qd administered as 5 days on/2 days off regimen for 4 cycles by immunoblot analysis; type: functional, organism-based; conditions: time 28.0 day
A549 [22] = experiment: Antitumor activity against human A549 cells xenografted in female nude mouse model assessed as inhibition in tumor growth at 10 to 50 mg/kg, po qd administered as 5 days on/2 days off regimen for 4 cycles; type: functional, organism-based; conditions: dose 10-50 mg/kg, time 28.0 day
[23] = biological target: 3-phosphoinositide-dependent protein kinase 1 (Homo sapiens) (UniProt O15530); experiment: Inhibition of recombinant human full length His-tagged PDK1 expressed in baculovirus expression system at 2 uM using Ser/Thr 06 as substrate measured after 1 hr by Z'-LYTE assay relative to control
Chain of 3-phosphoinositide-dependent protein kinase 1 (Homo sapiens) (O15530 whole entry, looked up): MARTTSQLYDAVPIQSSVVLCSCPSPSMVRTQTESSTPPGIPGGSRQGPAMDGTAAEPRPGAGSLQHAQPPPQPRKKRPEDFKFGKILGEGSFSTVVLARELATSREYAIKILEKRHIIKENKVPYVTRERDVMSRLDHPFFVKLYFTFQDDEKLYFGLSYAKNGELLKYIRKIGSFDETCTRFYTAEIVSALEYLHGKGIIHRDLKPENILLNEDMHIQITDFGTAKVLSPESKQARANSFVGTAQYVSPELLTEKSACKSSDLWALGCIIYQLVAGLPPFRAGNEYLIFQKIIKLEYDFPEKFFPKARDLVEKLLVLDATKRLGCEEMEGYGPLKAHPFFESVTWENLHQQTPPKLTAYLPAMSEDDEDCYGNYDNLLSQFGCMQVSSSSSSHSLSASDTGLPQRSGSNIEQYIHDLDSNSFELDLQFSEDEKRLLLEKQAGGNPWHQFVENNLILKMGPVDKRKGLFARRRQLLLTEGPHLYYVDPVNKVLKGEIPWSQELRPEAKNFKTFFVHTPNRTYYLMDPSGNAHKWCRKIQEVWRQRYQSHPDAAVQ

CNC(=O)Nc1ccc(-c2nc(N3CC4CCC(C3)O4)c3cnn(C4CCC5(CC4)OCCO5)c3n2)cc1
inhibition at 2 µM [1]: 0% | inhibition [2]: -1% | inhibition [3]: 7% | inhibition [4]: 6% | inhibition [5]: 7% | inhibition [6]: -1% | inhibition [7]: 15% | inhibition [8]: 11% | inhibition [9]: 0% | inhibition [10]: 4% | inhibition [11]: 8% | inhibition [12]: 0% | inhibition [13]: 12% | inhibition [14]: 12% | inhibition [15]: 7% | inhibition [16]: 3% | IC50 (A549 [17]): 102 nM | IC50 (NCI-H460): 300 nM | IC50 (HCT-116): 380 nM | Activity (MDA-MB-468): Active | Activity (U-87 MG [18]): 48% | Activity (U-87 MG [19]): Active | Activity (MDA-MB-361 [20]): Active | Activity (MDA-MB-361 [21]): Active | inhibition (A549 [22]): Dose-Dependent Effect | inhibition [23]: 3%
